Results on 22 compounds are retold here after patent publication US8999983B2, “Modulators of Hec1 activity and methods therefor” (Taivex Therapeutics Corporation, priority 2011, dated 2015).

What all share (type): cell-based
The test system of one assay is Hela. In words: Antiproliferation assay (MTS), HeLa cells. As to conditions: Homo sapiens, 96 h. On the procedure:
(§1) Cells were grown at 37° C. in a humidified atmosphere consisting of 5% CO2 and 95% air.
(§2) Antiproliferation Assays: Cells were plated in a 96-well culture plate with 2000-8000 cells per well. The compounds were prepared in DMSO and used to treat cells in a final concentration of less than 1% DMSO. Compound treatment started after overnight incubation of cells (T0). […] Compound was added to the plate in triplicate wells, and the plates were then incubated for 96 hours. DMSO (compound diluent) was also included and added to the plate in control wells. Cell viability was then determined by MTS assay using the CellTiter 96® aqueous non-radioactive cell proliferation assay system (Promega, Madison, Wis. 53711 USA). A plate reader (Vmax, Molecular Devices, Sunnyvale Calif. 94089 USA) was used to determine the optical densities, and the results were used to deduce concentration-response curves. […] The results were analyzed using linear regression software (GraphPad Prism 5; GraphPad Software Inc. La Jolla Calif. 92037 USA).

A further assay deals with K562. Briefly: Antiproliferation assay (MTS), K562 cells. As to conditions: Homo sapiens, K562, 96 h. On the procedure:
as §1, §2

Another assay concerns MDA-MB-468. In words: Antiproliferation assay (MTS), MDA-MB-468 cells. As to conditions: Homo sapiens, MDA-MB-468, 96 h. On the procedure: as §1, §2
Another assay deals with MDA-MB-231. In words: Antiproliferation assay (MTS), MDA-MB-231 cells. As to conditions: Homo sapiens, MDA-MB-231, 96 h, read-out: Antiproliferative IC50 MDA-MB-231, Table 1. As for the experimental part:
as §1, §2

Where [1] appears, read: Table 1, read-out: Antiproliferative IC50 Hela.
Setting [2] is: Table 1, read-out: Antiproliferative IC50 K562.
The mark [3] stands for this setting: Table 1, read-out: Antiproliferative IC50 MDA-MB-468.
[4] abbreviates: Table 2, read-out: Antiproliferative IC50 Hela.

Read-outs that look alike come from different tables or passages of the source. Bounds are passed on as bounds.

As usually defined, the IC50 is the concentration that inhibits the measured activity by half. As for `Cc1cc(N(C)C)cc(C)c1-c1csc(NC(=O)c2ccncc2)n1` [Compound 1, N-{4-(4-(Dimethylamino)-2,6-dimethylphenyl)thiazol-2-yl}isonicotinamide], the half-inhibitory concentration (IC50) with Hela (setting [1]) came to 0.251 µM; in the assay on K562 (setting [2]), 0.0867 µM; in the assay with MDA-MB-468 (setting [3]) it was 0.167 µM; with MDA-MB-231, 0.144 µM.
Taken in the same sequence, the figures for `COc1ccc(Oc2cc(C)c(-c3nc(NC(=O)c4ccncc4)sc3Br)c(C)c2)cc1` [Compound 2, N-{5-Bromo-4-(4-(4-methoxyphenoxy)-2,6-dimethylphenyl)thiazol-2-yl}isonicotinamide] were 0.66 µM, 0.273 µM, 0.594 µM and 0.484 µM.
On to `COc1ccc(Sc2cc(C)c(-c3csc(NC(=O)c4ccncc4)n3)c(Cl)c2)cc1` [Compound 3, N-{4-(2-Chloro-4-(4-methoxyphenylsulfanyl)-6-methylphenyl)thiazol-2-yl}isonicotinamide], for which the half-inhibitory concentration (IC50) in the assay on Hela (setting [1]) was 0.0269 µM; with K562 (setting [2]) it was 0.0234 µM; with MDA-MB-468 (setting [3]) it was 0.027 µM; with MDA-MB-231, 0.0282 µM.
For `Cc1cc(OCC2CC2)cc(C)c1-c1csc(NC(=O)c2ccncc2)n1` [Compound 4, N-{4-(4-(Cyclopropylmethoxy)-2,6-dimethylphenyl)thiazol-2-yl}isonicotinamide], in that order: 0.281 µM, 0.207 µM, 0.245 µM and 0.157 µM.
For `Cc1cc(Oc2ccc(O)nc2)cc(C)c1-c1csc(NC(=O)c2ccncc2)n1` [Compound 5, N-{4-(4-(6-Hydroxypyridin-3-yloxy)-2,6-dimethylphenyl)thiazol-2-yl}isonicotinamide], in that order: 0.903 µM, 0.563 µM, 1.01 µM and 1.24 µM.
Taken in the same sequence, the figures for `Cc1cc(Oc2ncccn2)cc(C)c1-c1csc(NC(=O)c2ccncc2)n1` [Compound 6, N-{4-(2,6-Dimethyl-4-(pyrimidin-2-yloxy)phenyl)thiazol-2-yl}isonicotinamide] were 1.02 µM, 0.366 µM, 0.661 µM and 0.713 µM.
For the compound `Cc1cc(Oc2cnccn2)cc(C)c1-c1csc(NC(=O)c2ccncc2)n1` [Compound 7, N-{4-(2,6-Dimethyl-4-(pyrazin-2-yloxy)phenyl)thiazol-2-yl}isonicotinamide], the half-inhibitory concentration (IC50) in the assay with Hela (setting [1]) amounted to 0.217 µM; with K562 (setting [2]) it was 0.092 µM; in the assay on MDA-MB-468 (setting [3]), 0.191 µM; with MDA-MB-231 it was 0.161 µM.
`COc1cnc(Oc2cc(C)c(-c3csc(NC(=O)c4ccncc4)n3)c(C)c2)nc1` [Compound 8, N-{4-(4-(5-Methoxypyrimidin-2-yloxy)-2,6-dimethylphenyl)thiazol-2-yl}isonicotinamide]: the half-maximal inhibitory concentration (IC50) was determined as 0.13 µM in the assay with Hela (setting [1]), 0.0718 µM in the assay with K562 (setting [2]), 0.0854 µM in the assay on MDA-MB-468 (setting [3]) and 0.121 µM in the assay with MDA-MB-231.
Taken in the same sequence, the figures for `COc1ccc(Oc2cc(C)c(-c3csc(NC(=O)c4ccncc4)n3)c(C)c2)cn1` [Compound 9, N-{4-(4-(6-Methoxypyridin-3-yloxy)-2,6-dimethylphenyl)thiazol-2-yl}isonicotinamide] were 0.0816 µM, 0.0391 µM, 0.0484 µM and 0.0658 µM.
For `COc1cc(Cl)c(-c2csc(NC(=O)c3ccncc3)n2)c(Cl)c1` [Compound 10, N-(4-(2,6-Dichloro-4-methoxyphenyl)thiazol-2-yl)isonicotinamide], in that order: 4.43 µM, 0.633 µM, 6.55 µM and 2.33 µM.
For `Cc1cc(Sc2cnccn2)cc(C)c1-c1csc(NC(=O)c2ccncc2)n1` [Compound 11, N-{4-(2,6-Dimethyl-4-(pyrazin-2-ylthio)phenyl)thiazol-2-yl}isonicotinamide], in that order: 0.0334 µM, 0.0382 µM, 0.0524 µM and 0.0474 µM.
On to `COc1cc(F)c(-c2csc(NC(=O)c3ccncc3)n2)c(Cl)c1` [Compound 13, N-(4-(2-Chloro-6-fluoro-4-methoxyphenyl)thiazol-2-yl)isonicotinamide], for which the half-maximal inhibitory concentration (IC50) with Hela (setting [1]) worked out at 0.375 µM; with K562 (setting [2]), 0.247 µM; with MDA-MB-468 (setting [3]), 1.02 µM; in the assay on MDA-MB-231 it was 0.386 µM.
In the case of `COc1cc(F)cc(Cl)c1-c1csc(NC(=O)c2ccncc2)n1` [Compound 14, N-(4-(2-Chloro-4-fluoro-6-methoxyphenyl)thiazol-2-yl)isonicotinamide], the IC50 in the assay on Hela (setting [1]) worked out at 2.99 µM; in the assay on K562 (setting [2]) it was 3.69 µM; in the assay on MDA-MB-468 (setting [3]) it was 9.43 µM; with MDA-MB-231, 6.35 µM.
Taken in the same sequence, the figures for `Cc1cc(Oc2ccc(OC(C)C)cc2)cc(C)c1-c1csc(NC(=O)c2ccncc2)n1` [Compound 16, N-{4-(4-(4-Isopropoxyphenoxy)-2,6-dimethylphenyl)thiazol-2-yl}isonicotinamide] were 0.0801 µM, 0.0592 µM, 0.0697 µM and 0.0807 µM.
Taken in the same sequence, the figures for `COc1ccc(Oc2cc(C)c(-c3csc(NC(=O)c4ccncc4)n3)c(C)c2)nc1` [Compound 18, N-(4-{4-((5-Methoxypyridin-2-yl)oxy)-2,6-dimethylphenyl}thiazol-2-yl)isonicotinamide] were 0.0406 µM, 0.0437 µM, 0.0494 µM and 0.0408 µM.
For `Cc1cc(OCCN(C)C)cc(C)c1-c1csc(NC(=O)c2ccncc2)n1` [Compound 23, N-(4-{4-(2-(Dimethylamino)ethoxy)-2,6-dimethylphenyl}thiazol-2-yl)isonicotinamide], in that order: > 10 µM, > 10 µM, > 10 µM and > 10 µM.
Turning to `COc1cc(C)c(-c2csc(NC(=O)Nc3ccncc3)n2)c(C)c1` [Compound 45, 1-(4-(4-Methoxy-2,6-dimethylphenyl)thiazol-2-yl)-3-(pyridin-4-yl)urea], the IC50 in the assay on K562 (setting [2]) stood at 0.486 µM; in the assay with MDA-MB-468 (setting [3]) it was 0.615 µM; in the assay with MDA-MB-231 it was 0.628 µM.
Turning to `Cc1cc(C)c(-c2csc(NC(=O)/C=C/c3cccnc3)n2)c(C)c1` [Compound 50, (E)-N-(4-Mesitylthiazol-2-yl)-3-(pyridin-3-yl)acrylamide], the half-inhibitory concentration (IC50) is 2.17 µM in the assay on MDA-MB-468 (setting [3]) and 1.11 µM in the assay with MDA-MB-231.
As to `Cc1cc(Nc2ccc(Br)cc2)cc(C)c1-c1csc(NC(=O)c2ccncc2)n1` [Compound 52, N-(4-(4-(4-Bromophenylamino)-2,6-dimethylphenyl)thiazol-2-yl)isonicotinamide], the IC50 in the assay on Hela (setting [1]) worked out at 2.13 µM; with K562 (setting [2]), 0.362 µM; with MDA-MB-231, 0.717 µM.
Take `COc1cc(C)c(-c2csc(NC(=O)Nc3ccncc3)n2)c(C)c1` [II-67, 1-(4-(4-Methoxy-2,6-dimethylphenyl)thiazol-2-yl)-3-(pyridin-4-yl)urea]: the IC50 with Hela (setting [4]) was > 10 µM.
Turning to `Cc1cc(C)c(-c2csc(NC(=O)/C=C/c3cccnc3)n2)c(C)c1` [II-103, (E)-N-(4-Mesitylthiazol-2-yl)-3-(pyridin-3-yl)acrylamide], the IC50 is > 10 µM in the assay with Hela (setting [4]) and 2.48 µM with K562 (Table 2, read-out: Antiproliferative IC50 K562).
On to `Cc1cc(Nc2ccc(Br)cc2)cc(C)c1-c1csc(NC(=O)c2ccncc2)n1` [II-122, N-(4-(4-(4-Bromophenylamino)-2,6-dimethylphenyl)thiazol-2-yl)isonicotinamide], for which, in the assay with MDA-MB-468 (Table 2, read-out: Antiproliferative IC50 MDA-MB-468), the IC50 came to 1.22 µM.
